The values that follow come from article PMC7785020, “A unique hormonal recognition feature of the human glucagon-like peptide-2 receptor” (Cell Research, 2020).

One test concerns the target T1, GLP-2R Y186^1.47A (Homo sapiens, UniProt O95838, Y186A).
T1 sequence (O95838 1-553 Y186A): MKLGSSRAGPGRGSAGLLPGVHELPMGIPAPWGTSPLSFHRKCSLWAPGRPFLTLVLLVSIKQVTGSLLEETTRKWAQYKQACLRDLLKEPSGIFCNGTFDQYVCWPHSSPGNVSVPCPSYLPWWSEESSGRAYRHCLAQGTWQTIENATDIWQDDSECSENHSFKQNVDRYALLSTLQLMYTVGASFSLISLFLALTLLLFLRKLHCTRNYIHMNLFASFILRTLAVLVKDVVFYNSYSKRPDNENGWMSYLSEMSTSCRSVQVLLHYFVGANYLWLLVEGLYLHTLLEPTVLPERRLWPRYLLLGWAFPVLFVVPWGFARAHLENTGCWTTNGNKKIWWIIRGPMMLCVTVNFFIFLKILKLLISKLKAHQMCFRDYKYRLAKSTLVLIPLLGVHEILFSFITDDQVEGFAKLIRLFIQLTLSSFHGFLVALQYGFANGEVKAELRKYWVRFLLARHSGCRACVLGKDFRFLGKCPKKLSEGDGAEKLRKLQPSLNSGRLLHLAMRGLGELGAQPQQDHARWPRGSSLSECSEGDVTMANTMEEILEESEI
The test can be described thus: radioligand competition binding, Y186^1.47A. Further details: WT (1–553); expressed in transfected cells. Particulars: COS-7, Y186^1.47A; [^125I]GLP-2(1–33, M10Y) 10–15 pM, 4 h, 4 °C; n ≥ 3 in duplicate. On the procedure:
A stepwise oxidation reaction was performed by addition of 6 aliquots of 5 µL ChloramineT (30 µL/mL) with a 1-min interval during constant stirring. The reaction was terminated by the addition of 400 µL phase A (0.1% trifluoracetic acid) before being fractionated into 1 mL volume by reverse-phase high-performance liquid chromatography (RP-HPLC, Waters 600 SimiPrep system) on a C18 column. The iodinated protein was […] by increasing concentrations of phase B (Acetonitrile + 0.1% TFA) and tested for competitive binding ability.
One day before transfection, the COS-7 cells were seeded in 75 cm^2 culture flasks (3 million cells/flask) in DMEM, containing 3.9 g/L NaHCO3 and supplemented with 10% FBS, 1% L-glutamine, 180 units/mL penicillin and 45 µg/mL streptomycin. After an overnight culture at 37 °C, 10% CO2 and 95% air humidity, the cells were transiently transfected with different GLP-2R constructs or pcDNA3.1 vector as previously described.[52] Following 24-h incubation, the cells were transferred to Costa® microtiter plates (150,000 cells/well, PerkinElmer) to achieve a 5%–10% specific binding. […] The cells were then washed twice in binding buffer (4 °C), lysed and counted for radioactivity using a Wallac Gamma Counter (PerkinElmer).
In general terms: Displacement assays read how much labelled ligand stays bound in the presence of the test substance.

In a further test the target is GLP-1R (WT) (Homo sapiens, UniProt P43220). The test can be described thus: cAMP accumulation, WT GLP-1R. The format is cell-based. Further details: expressed in transfected cells; host or cells: HEK 293T. Particulars: Table S5, GLP-1R (WT), HEK 293T, 30 min, RT, mean ± SEM, n ≥ 3 in duplicate; for EC50: read-out: cAMP pEC50 (converted).
In a further test the target is T2, GLP-2R W249^ECL1A (Homo sapiens, UniProt O95838, W249A).
T2 sequence (O95838 1-553 W249A): T1 sequence (O95838 1-553 Y186A) with A186Y, W249A
Kind of test: cAMP accumulation, W249^ECL1A. Type of test: cell-based. Further details: WT (1–553); expressed in transfected cells; HEK 293T (cAMP). The settings on record: HEK 293T, 30 min, RT, mean ± SEM, n ≥ 3 in duplicate; for Emax: HEK-293T, read-out: cAMP Emax (% WT); for EC50: read-out: cAMP pEC50 (converted). On the procedure: They were seeded onto 6-well cell culture plates and transiently transfected with different GLP-2R constructs using Lipofectamine 2000 transfection reagent (Invitrogen, Carlsbad, CA, USA). After 24 h, the transfected cells were seeded onto 384-well microtiter plates (3000 cells per well) in HBSS supplemented with 5 mM HEPES, 0.1% (w/v) bovine serum albumin (BSA) and 0.5 mM 3-isobutyl-1- methylxanthine, and stimulated with increasing concentrations of GLP-2 for 30 min at RT. Eu and Ulight were diluted by cAMP detection buffer and added to the plates separately to terminate the reaction. Plates were incubated at RT for 60 min before measuring the fluorescence intensity at 620 nm and […] by an EnVision multilabel plate reader (PerkinElmer, Boston, USA).

Positions count from the first letter of the chain named. Like-named read-outs stand apart in the source and are kept apart here. No end group written: not given here.

Chain of GLP-1R (WT) (P43220 24-463, species assumed): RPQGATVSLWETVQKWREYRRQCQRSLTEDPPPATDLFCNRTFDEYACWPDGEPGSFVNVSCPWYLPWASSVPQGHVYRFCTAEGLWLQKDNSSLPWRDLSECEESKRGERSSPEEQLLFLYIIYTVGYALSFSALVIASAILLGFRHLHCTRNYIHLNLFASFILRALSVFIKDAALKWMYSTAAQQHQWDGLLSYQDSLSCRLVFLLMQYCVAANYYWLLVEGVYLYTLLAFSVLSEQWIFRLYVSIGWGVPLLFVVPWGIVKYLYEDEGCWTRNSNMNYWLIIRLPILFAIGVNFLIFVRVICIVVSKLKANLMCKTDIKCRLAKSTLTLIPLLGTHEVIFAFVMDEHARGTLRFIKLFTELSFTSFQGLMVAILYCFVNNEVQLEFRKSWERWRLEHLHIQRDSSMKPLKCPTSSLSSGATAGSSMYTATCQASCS

Turning to `CC[C@H](C)[C@H](NC(=O)[C@H](Cc1ccccc1)NC(=O)[C@H](CC(=O)O)NC(=O)[C@H](CCCNC(=N)N)NC(=O)[C@H](C)NC(=O)[C@H](C)NC(=O)[C@H](CC(C)C)NC(=O)[C@H](CC(N)=O)NC(=O)[C@H](CC(=O)O)NC(=O)[C@H](CC(C)C)NC(=O)[C@@H](NC(=O)[C@@H](NC(=O)[C@H](CC(N)=O)NC(=O)[C@H](CCSC)NC(=O)[C@H](CCC(=O)O)NC(=O)[C@H](CC(=O)O)NC(=O)[C@H](CO)NC(=O)[C@H](Cc1ccccc1)NC(=O)[C@H](CO)NC(=O)CNC(=O)[C@H](CC(=O)O)NC(=O)[C@H](C)NC(=O)[C@@H](N)Cc1c[nH]cn1)[C@@H](C)O)[C@@H](C)CC)C(=O)N[C@@H](CC(N)=O)C(=O)N[C@@H](Cc1c[nH]c2ccccc12)C(=O)N[C@@H](CC(C)C)C(=O)N[C@H](C(=O)N[C@@H](CCC(N)=O)C(=O)N[C@H](C(=O)N[C@@H](CCCCN)C(=O)N[C@H](C(=O)N[C@H](C(=O)N[C@@H](CC(=O)O)C(=O)O)[C@@H](C)O)[C@@H](C)CC)[C@@H](C)O)[C@@H](C)CC` [Human GLP-2 (1–33)], the “% Binding of WT” value at GLP-2R Y186^1.47A is given as “N.B”. In addition, the Emax at GLP-1R (WT) was 4 ± 3.1%; on GLP-2R W249^ECL1A (Table S3, W249A), 128 ± 162%; at GLP-2R W249^ECL1A (Table S5, W249A), 113 ± 4.1%. Also, on GLP-1R (WT), the EC50 was 5.01 nM.
With `CC[C@H](C)[C@H](NC(=O)[C@H](Cc1ccccc1)NC(=O)[C@H](CC(=O)O)NC(=O)[C@H](CCCNC(=N)N)NC(=O)[C@H](C)NC(=O)[C@H](C)NC(=O)[C@H](CC(C)C)NC(=O)[C@H](CC(N)=O)NC(=O)[C@H](CC(=O)O)NC(=O)[C@H](CC(C)C)NC(=O)[C@@H](NC(=O)[C@@H](NC(=O)[C@H](CC(N)=O)NC(=O)[C@H](CCSC)NC(=O)[C@H](CCC(=O)O)NC(=O)[C@H](CC(=O)O)NC(=O)[C@H](CO)NC(=O)[C@H](Cc1ccccc1)NC(=O)[C@H](CO)NC(=O)CNC(=O)[C@H](CC(=O)O)NC(=O)CNC(=O)[C@@H](N)Cc1c[nH]cn1)[C@@H](C)O)[C@@H](C)CC)C(=O)N[C@@H](CC(N)=O)C(=O)N[C@@H](Cc1c[nH]c2ccccc12)C(=O)N[C@@H](CC(C)C)C(=O)N[C@H](C(=O)N[C@@H](CCC(N)=O)C(=O)N[C@H](C(=O)N[C@@H](CCCCN)C(=O)N[C@H](C(=O)N[C@H](C(=O)N[C@@H](CC(=O)O)C(=O)O)[C@@H](C)O)[C@@H](C)CC)[C@@H](C)O)[C@@H](C)CC` [Teduglutide], on GLP-2R Y186^1.47A, the “% Binding of WT” value is “N.B”.
In the case of “HADGSFSDEMNTILDNLAAKEFIAWLVKGRG [Chimeric GLP-1/GLP-2 (20-33)]”, on GLP-1R (WT), the Emax amounted to 112 ± 2.8% and the EC50 was 3.16 nM. Moreover, the EC50 on GLP-2R W249^ECL1A (Table S5, W249A) was 6310 nM.
In the case of “HADGSFTSDVSSYLEGQAARDFINWLIQTKITD [Chimeric GLP-1/GLP-2 (7-19)]”, on GLP-1R (WT), the Emax worked out at 105 ± 2.4% and the EC50 was 0.0126 nM.
For “HAEGTFSDEMNTILDNLAARDFINWLIQTKITD [Chimeric GLP-1/GLP-2 (1-6)]”, at GLP-1R (WT), the Emax turned out to be 7.1 ± 3.2% and the EC50 was 7.94 nM. The EC50 at GLP-2R W249^ECL1A (Table S5, W249A) was 1260 nM.

Broadly, the Emax is the greatest response seen or fitted, relative to the assay's reference.
